The text below walks through data of patent US9102710B2, “Cyclic peptides binding CXCR4 receptor and relative medical and diagnostic uses” (IRCCS-ISTITUTO NAZIONALE PER LO STUDIO E LA CURA DEI TUMORI …, priority 2010, dated 2015).

For series [1], the system named is phosphorylation of ERK 1,2. The series is described as follows: p-ERK induction by Immunoblotting in PES43 cells. The format is cell-based, human. As to conditions: AMD3100 1 uM, SDF-1α 100 ng/ml. The procedure:
CXCL12 activates the phosphorylation of ERK and this phosphorylation is inhibited by both AMD3100 (1 uM), and by the peptides css:[C-WHR-C] (10 uM), css:[C-FFR-C] (10 uM), css:[C-FFR-C]-Nam (10 uM), css:[C-WYR-C]-AR (10 uM), RA-css:[C-RFF-C] (10 uM), RA-css:[C-RHW-C] (10 uM), abb:[β-Ala-WHR-β-Ala] (10 uM).
The activation of CXCR4 induces the transduction path of MAPK through the phosphorylation of ERK 1,2. For this reason, the modulation of the induction of P-ERK was evaluated in relation to treatment with SDF-1α (100 ng/ml), peptides (10 uM) and AMD3100 (1 uM).
The cells were deprived of serum for 24 hours and then stimulated with SDF-1α.
The human melanoma cells, PES43, grown on 100 mm plates, were treated with SDF-1α, for 2-5-7-10 minutes. The cells were then mechanically detached, lysed in a specific buffer to which protease inhibitors and phosphatase inhibitors were added (120 mM NaCl, 40 mM Hepes, 5 mM MgCl2, 1 mM EGTA, 0.5 mM EDTA, 0.6% Triton, 10% glycerol, […], 1 mM Na3VO4, 1 mM NaF). The cell lysates thus obtained (50 μg of total proteins) were first denatured with Laemmli 4× and then separated with SDS-PAGE on gel at 10% in the presence of a running buffer (Tris Base, Glycine, SDS); the proteins were subsequently transferred onto a nitrocellulose membrane in incubated with primary antibodies specific for the following proteins: phospho-ERK 1/2, total ERK. […]
In general terms: In western blotting, separated proteins are transferred to a membrane and probed.

The conditions of series [2]: cited from earlier work.
The next series addresses T1, CXCR4 receptor (Homo sapiens, UniProt P61073).
T1 construct: a leukaemia T CD4+ cell line with a high expression of the CXCR4 receptor; endogenous in cells; host or cells: CCRF-CEM (printed also CCFR-CEM) leukaemia T CD4+ cells
The series is described as follows: Cytofluorimetric determination of Ca2+ release in CCFR-CEM cells after stimulation with SDF-1α. Conditions: compound 10 uM, read-out: reduction (inhibition) of Calcium release induced by SDF-1α. The format is cell-based. The source says: For all the subsequent in vitro examples, two cell lines were used: CCFR-CEM and PES 43; the first is a leukaemia T CD4+ cell line with a high expression of the CXCR4 receptor, grown in a RPMI 1640 culture medium enriched with 10% of Fetal Bovine Serum (FBS) inactivated with heat and 1% of L-Glutamine; the second is a cell line deriving from melanoma lung metastasis called PES43 with a high expression of the CXCR4 receptor, grown in Iscove's Modified Dulbecco's Medium (IMDM) supplemented with 10% of Fetal Bovine Serum (FBS) inactivated with heat and 1% of Penicillin-Streptomycin.
The determination of the release of intracellular Calcium was effected in CCFR-CEM cells. The cells (500,000 cells) were washed with PBS, resuspended in 1 ml of Loading Buffer (PBS 1×, 1 mM CaCl2, 1 mM MgCl2, 1% FBS inactivated with heat) at 37° C., and incubated with 4 ul of the calcium tracer FLUO3-AM (1 mg/ml; Sigma) and 4 ul of Pluronic Acid F-127 (1 mg/ml in 2% of DMSO; Invitrogen) in the dark for 30′ at 37° C. under stirring. In order to remove the excess FLUO3-AM, 3 ml of Loading Buffer are added, this is followed by a centrifugation for 5′ at 1,000-1,200 rpm. The pellet thus obtained is resuspended in 1 ml of Loading Buffer. […]

T1 sequence (P61073 whole entry): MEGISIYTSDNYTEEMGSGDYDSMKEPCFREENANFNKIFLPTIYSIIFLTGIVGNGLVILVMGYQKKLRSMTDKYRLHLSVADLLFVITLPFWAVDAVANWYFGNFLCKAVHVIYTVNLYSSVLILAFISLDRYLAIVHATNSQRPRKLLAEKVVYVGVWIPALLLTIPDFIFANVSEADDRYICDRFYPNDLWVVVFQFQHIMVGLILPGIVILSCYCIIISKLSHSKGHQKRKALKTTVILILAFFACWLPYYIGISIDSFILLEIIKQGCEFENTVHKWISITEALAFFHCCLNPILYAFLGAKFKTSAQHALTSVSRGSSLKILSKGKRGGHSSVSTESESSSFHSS

The inhibition is the percentage by which the read-out fell short of the control. Consider `c1cc(CN2CCCNCCNCCCNCC2)ccc1CN1CCCNCCNCCCNCC1` [AMD3100, 1,19-[1,4-phenylenebis(methylene)]-bis-1,4,8,11-azatetradecane], for which the “inhibition of SDF-1α-activated phosphorylation of ERK” value in series [1] was “inhibited”. The “time of peak of increase in white blood cell series after administration” value in series [2] (healthy volunteers, Phase 1) is 6 h. In addition, in series [2] (previous studies [4]), the bioavailability result is “poor”; the toxicity entry was “hepatic, cardiac and cerebellar toxicity”. Moreover, at CXCR4 receptor, the inhibition at 10 µM came out at 70%.
